For this experiment, the target named is T1, histamine 3 receptor (H3R) (Homo sapiens, UniProt Q9Y5N1).
T1 construct: expressed in transfected cells; host or cells: CHO cells (membranes)
The experiment can be described thus: Binding assay with 3H-(R)α-methylhistamine (competition binding, H3R-CHO membranes). The settings on record: membrane of the human H3R-CHO cell line; 3H(R)α-methylhistamine 1 nM; Ki calculated from IC50 by Cheng-Prusoff. Here is the method:
Binding Assay with ^3H—(R)α-methylhistamine
Saturation binding experiments were performed using HR3-CHO membranes prepared as described in Takahashi, K, Tokita, S., Kotani, H. (2003) J. Pharmacol. Exp. Therapeutics 307, 213-218.
An appropriate amount of membrane (60 to 80 μg protein/well) was incubated with increasing concentrations of ^3H(R)α-methylhistamine di-hydrochloride (0.10 to 10 nM). Non specific binding was determined using a 200 fold excess of cold (R)α-methylhistamine dihydrobromide (500 nM final concentration). The incubation was carried out at room temperature (in deep-well plates shaking for three hours). The final volume in each well was 250 μl. The incubation was followed by rapid filtration on GF/B filters (pre-soaked with 100 μl of 0.5% PEI in Tris 50 mM shaking at 200 rpm for two hours). The filtration was made using a cell-harvester and the filter plates were then washed five times with ice cold washing buffer containing 0.5 M NaCl. After harvesting, the plates were dried at 55° C. for 60 min, then scintillation fluid (Microscint 40, 40 microl in each well) was added and the amount of radioactivity on the filter was determined in Packard top-counter after shaking the plates for two hours at 200 rpm at room temperature.
Binding Buffer: 50 mM Tris-HCl pH 7.4 and 5 mM MgCl2×6H2O pH 7.4. Washing Buffer: 50 mM Tris-HCl pH 7.4 and 5 mM MgCl2×6H2O and 0.5 M NaCl pH 7.4.
Indirect measurement of affinity of H3R inverse agonists: twelve increasing concentrations (ranging from 10 μM to 0.3 nM) of the selected compounds were always tested in competition binding experiments using membrane of the human H3R-CHO cell line. […]
All compounds were tested at a single concentration in duplicate. […] Ki's were calculated from IC50 based on Cheng-Prusoff equation (Cheng, Y, Prusoff, W H (1973) Biochem Pharmacol 22, 3099-3108): Ki=IC50/[1+D/Kd] wherein D is the concentration of the radioligand and Kd is the binding constant for the radioligand binding to the receptor and the conditions used in the competition experiment.

T1 sequence (Q9Y5N1 whole entry): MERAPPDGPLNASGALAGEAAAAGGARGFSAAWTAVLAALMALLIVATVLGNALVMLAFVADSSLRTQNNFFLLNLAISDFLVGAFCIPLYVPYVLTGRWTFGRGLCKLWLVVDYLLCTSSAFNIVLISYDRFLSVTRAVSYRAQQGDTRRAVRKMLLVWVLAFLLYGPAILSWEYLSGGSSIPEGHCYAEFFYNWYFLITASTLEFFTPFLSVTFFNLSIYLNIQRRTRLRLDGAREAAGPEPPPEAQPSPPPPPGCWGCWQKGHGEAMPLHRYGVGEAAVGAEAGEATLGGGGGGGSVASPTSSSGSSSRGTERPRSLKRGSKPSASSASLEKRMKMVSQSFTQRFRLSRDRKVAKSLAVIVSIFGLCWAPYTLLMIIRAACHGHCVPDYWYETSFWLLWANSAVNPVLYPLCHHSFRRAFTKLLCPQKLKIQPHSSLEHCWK

As a reminder, the Ki is a measure of affinity in units of concentration, obtained from inhibition or displacement. As to `O=C(Nc1ccnc(N2CCN(C3CCCC3)CC2)n1)N1CCCCCC1` [Example 6, azepane-1-carboxylic acid [2-(4-cyclopentyl-piperazin-1-yl)-pyrimidin-4-yl]-amide], the Ki was 0.051 µM. Turning to `CC1CC(C)CN(C(=O)Nc2cc(N3CCN(C4CCCCC4)CC3)ncn2)C1` (stereo not drawn) [Example 93, 3,5-Dimethyl-piperidine-1-carboxylic acid [6-(4-cyclohexyl-piperazin-1-yl)-pyrimidin-4-yl]-amide], the Ki is 0.0222 µM.

`CC(C)N1CCN(c2cc(NC(=O)N3CCCCC3)ncn2)CC1` [Example 54, piperidine-1-carboxylic acid [6-(4-isopropyl-piperazin-1-yl)-pyrimidin-4-yl]-amide]: the Ki is 0.0346 µM.

The values above are taken from patent publication US7902184B2, “Piperazinyl pyrimidine derivatives” (Hoffmann-La Roche Inc., priority 2006, dated 2011).
